Test results as given in BindingDB's records for doi:10.1021/jm00055a005 (Scios Nova, 1993).

Columns and labels:
[1] = molecular target: Sigma non-opioid intracellular receptor 1 (Cavia porcellus); assay: Binding affinity against sigma sites in guinea pig membrane using [3H](+)-3-PPP as the radioligand
[2] = molecular target: Sigma receptor (Cavia porcellus); assay: Binding affinity against sigma sites in guinea pig membrane using [3H]DTG as the radioligand

Clc1ccc(OCCN2C3CCC2c2c([nH]c4ccccc24)C3)cc1 (configuration not stated) [1-(4-chlorophenoxy)-2-[9,15-diazatetracyclo[10.2.1.02,10.03,8]pentadeca-2(10),3,5,7-tetraen-15-yl]ethane]
IC50 [1]: 4880 nM
IC50 [2]: 251 nM

c1ccc(OCCN2C3CCC2c2c([nH]c4ccccc24)C3)cc1 (configuration not stated) [1-[9,15-diazatetracyclo[10.2.1.02,10.03,8]pentadeca-2(10),3,5,7-tetraen-15-yl]-2-phenoxyethane]
IC50 [1]: 534 nM
IC50 [2]: 110 nM

c1ccc(OCCCN2C3CCC2c2c([nH]c4ccccc24)C3)cc1 (configuration not stated) [1-[9,15-diazatetracyclo[10.2.1.02,10.03,8]pentadeca-2(10),3,5,7-tetraen-15-yl]-3-phenoxypropane]
IC50 [1]: 262 nM
IC50 [2]: 132 nM

c1csc(CCCCN2C3CCC2c2c([nH]c4ccccc24)C3)c1 (configuration not stated) [1-[9,15-diazatetracyclo[10.2.1.02,10.03,8]pentadeca-2(10),3,5,7-tetraen-15-yl]-4-(2-thienyl)butane]
IC50 [1]: 98 nM
IC50 [2]: 21 nM

c1ccc(OCCCCN2C3CCC2c2c([nH]c4ccccc24)C3)cc1 (configuration not stated) [1-[9,15-diazatetracyclo[10.2.1.02,10.03,8]pentadeca-2(10),3,5,7-tetraen-15-yl]-4-phenoxybutane]
IC50 [1]: 205 nM
IC50 [2]: 88 nM

c1ccc(CCCCCN2C3CCC2c2c([nH]c4ccccc24)C3)cc1 (configuration not stated) [1-[9,15-diazatetracyclo[10.2.1.02,10.03,8]pentadeca-2(10),3,5,7-tetraen-15-yl]-5-phenylpentane]
IC50 [1]: 348 nM
IC50 [2]: 107 nM

c1ccc(CCCCN2C3CCC2c2c(n(Cc4ccccc4)c4ccccc24)C3)cc1 (configuration not stated) [1-[9-benzyl-9,15-diazatetracyclo[10.2.1.02,10.03,8]pentadeca-2(10),3,5,7-tetraen-15-yl]-4-phenylbutane]
IC50 [1]: 396 nM
IC50 [2]: 267 nM

CC(C)n1c2c(c3ccccc31)C1CCC(C2)N1CCCCc1ccccc1 (configuration not stated) [1-[9-isopropyl-9,15-diazatetracyclo[10.2.1.02,10.03,8]pentadeca-2(10),3,5,7-tetraen-15-yl]-4-phenylbutane]
IC50 [1]: 705 nM
IC50 [2]: 231 nM

O=C1c2ccccc2C(=O)N1CCCN1C2CCC1c1c([nH]c3ccc(F)cc13)C2 (configuration not stated) [2-{3-[5-fluoro-9,15-diazatetracyclo[10.2.1.02,10.03,8]pentadeca-2(10),3,5,7-tetraen-15-yl]propyl}-1,3-isoindolinedione]
IC50 [1]: 3330 nM
IC50 [2]: 836 nM

OCCCN1C2CCC1c1c([nH]c3ccc(F)cc13)C2 (configuration not stated) [3-[5-fluoro-9,15-diazatetracyclo[10.2.1.02,10.03,8]pentadeca-2(10),3,5,7-tetraen-15-yl]-1-propanol]
IC50 [1]: 1380 nM
IC50 [2]: 317 nM

Fc1ccc2[nH]c3c(c2c1)C1CCC(C3)N1Cc1ccccc1 (configuration not stated) [15-benzyl-5-fluoro-9,15-diazatetracyclo[10.2.1.02,10.03,8]pentadeca-2(10),3,5,7-tetraene]
IC50 [1]: 908 nM
IC50 [2]: 86 nM
